The nature of assay [1]: Inhibition of superoxide production in PMNCs at 200 ug/mL by NBT reduction assay. In kind it is functional.
Another assay relates to Neutrophil. The experiment in a line: Inhibition of hypochlorous production in PMA-stimulated human neutrophils by luminol-enhanced chemiluminescence assay. Type of assay: functional, cell-based.
The nature of assay [2]: Inhibition of superoxide production in PMNCs by NBT reduction assay. Type of assay: functional.

In brackets after ≈: the same amount, converted by molar mass.

In assay [1], `C[C@@H]1O[C@@H](O[C@H]2[C@H](O)[C@@H](O[C@@H]3OC[C@@H](O)[C@H](O)[C@H]3O)[C@H](O[C@@H]3[C@@H](O)[C@H](C)O[C@@H](O[C@H]4[C@H](OC(=O)[C@]56CCC(C)(C)C[C@@H]5C5=CC[C@@H]7[C@@]8(C)C[C@H](O)[C@H](O)[C@@](C)(CO[C@@H]9O[C@H](CO)[C@@H](O)[C@H](O)[C@H]9O[C@@H]9OC[C@](O)(CO)[C@H]9O)[C@@H]8[C@H](O)C[C@@]7(C)[C@]5(C)CC6)OC[C@H](O)[C@@H]4O)[C@@H]3O)O[C@@H]2CO)[C@H](O)[C@H](O)[C@H]1O` came in with an inhibition at 200 µg/mL of 16%. Also, the IC50 in the assay with Neutrophil amounted to 144 µg/mL.
In turn, `O=C1O[C@H]([C@@H](O)CO)C(O)=C1O` [ASCORBIC ACID] registered an IC50 in assay [2] of 14.1 µg/mL (≈ 80.1 µM).
As to `CC(C)=C[C@H]1C[C@](C)(O)[C@H]2[C@H]3CC[C@@H]4[C@@]5(C)CC[C@H](O[C@@H]6O[C@H](CO)[C@@H](O)[C@H](O[C@@H]7O[C@H](CO)[C@@H](O)[C@H](O)[C@H]7O)[C@H]6O[C@@H]6O[C@@H](CO)[C@H](O)[C@H]6O)C(C)(C)[C@@H]5CC[C@@]4(C)[C@@]34CO[C@@]2(C4)O1` [BACOSIDE A3], the IC50 in the assay with Neutrophil worked out at 19.8 µg/mL.
`O=c1c(O)c(-c2ccc(O)c(O)c2)oc2cc(O)cc(O)c12` [QUERCETIN] gave an IC50 in assay [2] of 111 µg/mL (≈ 367 µM).

Broadly, the inhibition is the percentage by which the read-out fell short of the control. As usually defined, the IC50 is the concentration needed to halve the response being measured.

Values taken from ChEMBL document CHEMBL1151180, “Madhucosides A and B, protobassic acid glycosides from Madhuca indica with inhibitory activity on free radical release from phagocytes” (J Nat Prod, 2004).
